What is called IC50 is the point on the concentration scale where inhibition reaches its midpoint.

Data on 26 compounds can be found in patent US9676721B2, “Compounds and compositions for the inhibition of NAMPT” (FORMA TM, LLC, priority 2010, dated 2017).

Experiment [1] deals with NAMPT (Homo sapiens (Human), UniProt P43490). In words: Biochemical Inhibition Assay (NAMPT enzymatic reaction, NMN by mass spectrometry). The settings on record: recombinant His-tagged NAMPT 33 nM, 1 μM NAM, 30 minutes; read-out: Biochem IC50. The procedure: Biochemical Inhibition Assay NAMPT Protein Purification Recombinant His-tagged NAMPT was produced in E. coli cells, purified over a Ni column, and further purified over a size-exclusion column by XTAL Biostructures. The NAMPT Enzymatic Reaction The NAMPT enzymatic reactions were carried out in Buffer A (50 mM Hepes pH 7.5, 50 mM NaCl, 5 mM MgCl2, and 1 mM THP) in 96-well V-bottom plates. The compound titrations were performed in a separate dilution plate by serially diluting the compounds in DMSO to make a 100× stock. […] Background and signal strength was determined by addition (or non-addition) of a serial dilution of NMN to a pre-quenched enzyme and cofactor mix. Quantification of NMN A mass spectrometry-based assay was used to measure the NAMPT reaction product (NMN) and the internal control (L-Cystathionine). NMN and L-Cystathionine were detected using the services of Biocius Lifesciences with the RapidFire system. In short, the NMN and L-Cystathionine are bound to a graphitic carbon cartridge in 0.1% formic acid, eluted in 30% acetonitrile buffer, and injected into a Sciex 4000 mass spectrometer. The components of the sample were ionized with electrospray ionization and the positive ions were detected. […] The fragments are quantified and the analyzed by the following method. % Inhibitions are Determined Using this Method. First the NMN signal is normalized to the L-Cystathionine signal by dividing the NMN signal by the L-Cystathionine signal for each well. The signal from the background wells are averaged and subtracted from the test plates. […] IC50s are Determined Using Excel and this Formula.

In experiment [2] the test system is A2780 cells. The experiment can be described thus: In-Vitro Cell Proliferation Assay (SRB). The format is cell-based. Here is the method: In-Vitro Cell Proliferation Assay […] After overnight incubation at 37° C. and 5% CO2, the compound titrations were performed in a separate dilution plate by serially diluting the compounds in DMSO to make a 1000× stock. The compounds were then further diluted to 10× final concentration in culture media, whereupon 20 μL of each dilution was added to the plated cells with controls (e.g. DMSO and blank) to make a final volume of 200 μL. The final DMSO concentration in each well was 0.1%. The plates were then incubated for 72 hours at 37° C. in a 5% CO2 incubator. The number of viable cells was then assessed using sulforhodamine B (SRB) assay. Cells were fixed at 4° C. for 1 hour with the addition of 50 μL 30% trichloroacetic acid (TCA) to make a final concentration of 6% TCA. The plates were washed four times with H2O and allowed to dry for at least 1 hour, whereupon 100 μL of a […] SRB in 1% acetic acid solution was added to each well and incubated at room temperature for at least 30 minutes. The plates were then washed three times with 1% acetic acid, dried, and treated with 100 μL of 10 mM Tris-Base solution. The plates were then read in a microplate reader at an absorbance of 570 nm. Background was generated on a separate plate with media only. Method for Determining % Inhibition First, the signals from the background plate are averaged, then the background was subtracted from the test plates. […] Formula for Determining IC50 Values: […] Specificity of Cytotoxicity. Inhibition of NAMPT could be reversed by the addition of NAM or NMN. The specificity of the compounds were determined via cell viability assay in the presence of the compound and either NAM or NMN. Percent inhibitions were determined using the method given above.

Sequence of NAMPT (P43490 whole entry): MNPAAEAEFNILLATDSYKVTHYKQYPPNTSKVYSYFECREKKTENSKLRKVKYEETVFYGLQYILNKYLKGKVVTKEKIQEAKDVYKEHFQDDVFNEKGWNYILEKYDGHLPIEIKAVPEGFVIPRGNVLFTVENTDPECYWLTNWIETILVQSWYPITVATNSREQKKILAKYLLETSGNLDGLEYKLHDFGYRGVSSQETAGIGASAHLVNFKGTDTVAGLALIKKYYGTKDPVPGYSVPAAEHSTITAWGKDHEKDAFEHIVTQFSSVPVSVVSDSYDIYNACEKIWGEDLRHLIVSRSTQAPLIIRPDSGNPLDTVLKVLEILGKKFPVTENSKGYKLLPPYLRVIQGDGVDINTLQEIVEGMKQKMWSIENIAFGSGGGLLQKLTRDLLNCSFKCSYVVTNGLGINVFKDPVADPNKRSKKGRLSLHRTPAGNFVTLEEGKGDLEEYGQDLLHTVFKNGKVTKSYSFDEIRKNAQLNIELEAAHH

As for `COc1ccc(S(=O)(=O)c2ccc(CNC(=NC#N)Nc3ccncc3)cc2)cc1C` [2-cyano-1-({4-[(4-methoxy-3-methylbenzene)sulfonyl]phenyl}methyl)-3-(pyridin-4-yl)guanidine], the IC50 in experiment [1] worked out at 20.4 nM; in experiment [2] (Homo sapiens, A2780, 72 h), 15 nM.
In the same order, the values of `COc1ccc(S(=O)(=O)c2ccc(CN/C(=N\C#N)Nc3ccncc3)cc2)cc1` [2-cyano-1-({4-[(4-methoxybenzene)sulfonyl]phenyl}methyl)-3-(pyridin-4-yl)guanidine] are 6.5 nM and 10 nM.
With `Cc1ccc(S(=O)(=O)c2ccc(CN/C(=N\C#N)Nc3ccncc3)cc2)cc1` [2-cyano-1-({4-[(4-methylbenzene)sulfonyl]phenyl}methyl)-3-(pyridin-4-yl)guanidine], the half-inhibitory concentration (IC50) was 2.5 nM in experiment [1] and 2.6 nM in experiment [2] (Homo sapiens, A2780, 72 h).
Take `Cc1ccc(F)cc1S(=O)(=O)c1ccc(CNC(=NC#N)Nc2ccncc2)cc1` [2-cyano-1-({4-[(5-fluoro-2-methylbenzene)sulfonyl]phenyl}methyl)-3-(pyridin-4-yl)guanidine]: the IC50 in experiment [1] was 4.5 nM; in experiment [2] (Homo sapiens, A2780, 72 h), 3.3 nM.
In the case of `N#CN=C(NCc1ccc(S(=O)(=O)c2ccccc2CN2CCOCC2)cc1)Nc1ccncc1` [2-cyano-1-[(4-{[2-(morpholin-4-ylmethyl)benzene]sulfonyl}phenyl)methyl]-3-(pyridin-4-yl)guanidine], the IC50 in experiment [1] is 11.7 nM; in experiment [2] (Homo sapiens, A2780, 72 h) it was 7.5 nM.
In the same order, the values of `COc1cc(C(F)(F)F)ccc1S(=O)(=O)c1ccc(CNC(=NC#N)Nc2ccncc2)cc1` [2-cyano-1-[(4-{[2-methoxy-4-(trifluoromethyl)benzene]sulfonyl}phenyl)methyl]-3-(pyridin-4-yl)guanidine] are 5.7 nM and 6 nM.
For the compound `COc1ccc(C(C)C)cc1S(=O)(=O)c1ccc(CNC(=NC#N)Nc2ccncc2)cc1` [2-cyano-1-[(4-{[2-methoxy-5-(propan-2-yl)benzene]sulfonyl}phenyl)methyl]-3-(pyridin-4-yl)guanidine], the 50% inhibitory concentration (IC50) in experiment [1] was found to be 5.3 nM; in experiment [2] (Homo sapiens, A2780, 72 h) it was 3.5 nM.
Turning to `N#CN=C(NCc1ccc(S(=O)(=O)c2cccc(-n3cccn3)c2)cc1)Nc1ccncc1` [2-cyano-1-[(4-{[3-(1H-pyrazol-1-yl)benzene]sulfonyl}phenyl)methyl]-3-(pyridin-4-yl)guanidine], the IC50 in experiment [1] is 3.5 nM; in experiment [2] (Homo sapiens, A2780, 72 h) it was 2.9 nM.
As for `CN(C)S(=O)(=O)c1cccc(S(=O)(=O)c2ccc(CNC(=NC#N)Nc3ccncc3)cc2)c1` [2-cyano-1-[(4-{[3-(dimethylsulfamoyl)benzene]sulfonyl}phenyl)methyl]-3-(pyridin-4-yl)guanidine], the IC50 was 1.3 nM in experiment [1] and 6.1 nM in experiment [2] (Homo sapiens, A2780, 72 h).
Take `CCS(=O)(=O)c1cccc(S(=O)(=O)c2ccc(CNC(=NC#N)Nc3ccncc3)cc2)c1` [2-cyano-1-[(4-{[3-(ethanesulfonyl)benzene]sulfonyl}phenyl)methyl]-3-(pyridin-4-yl)guanidine]: the values for the half-maximal inhibitory concentration (IC50) in experiment [1] and in experiment [2] (72 hours) were 1.8 nM and 13.3 nM, respectively.
On to `COCc1cccc(S(=O)(=O)c2ccc(CNC(=NC#N)Nc3ccncc3)cc2)c1` [2-cyano-1-[(4-{[3-(methoxymethyl)benzene]sulfonyl}phenyl)methyl]-3-(pyridin-4-yl)guanidine], for which the IC50 came to 7.2 nM in experiment [1] and 5.9 nM in experiment [2] (Homo sapiens, A2780, 72 h).
In the same order, the values of `CC(C)c1cccc(S(=O)(=O)c2ccc(CNC(=NC#N)Nc3ccncc3)cc2)c1` [2-cyano-1-[(4-{[3-(propan-2-yl)benzene]sulfonyl}phenyl)methyl]-3-(pyridin-4-yl)guanidine] are 2.9 nM and 1.1 nM.
In the same order, the values of `CC(C)Oc1cccc(S(=O)(=O)c2ccc(CNC(=NC#N)Nc3ccncc3)cc2)c1` [2-cyano-1-[(4-{[3-(propan-2-yloxy)benzene]sulfonyl}phenyl)methyl]-3-(pyridin-4-yl)guanidine] are 3.2 nM and 5.7 nM.
In the same order, the values of `CCCS(=O)(=O)Nc1cccc(S(=O)(=O)c2ccc(CNC(=NC#N)Nc3ccncc3)cc2)c1` [2-cyano-1-[(4-{[3-(propane-1-sulfonamido)benzene]sulfonyl}phenyl)methyl]-3-(pyridin-4-yl)guanidine] are 2.1 nM and 23.3 nM.
For the compound `N#CN=C(NCc1ccc(S(=O)(=O)c2ccc(OCC(F)(F)F)c(F)c2)cc1)Nc1ccncc1` [2-cyano-1-[(4-{[3-fluoro-4-(2,2,2-trifluoroethoxy)benzene]sulfonyl}phenyl)methyl]-3-(pyridin-4-yl)guanidine], the IC50 amounted to 5.1 nM in experiment [1] and 5.9 nM in experiment [2] (Homo sapiens, A2780, 72 h).
Regarding `N#CN=C(NCc1ccc(S(=O)(=O)c2cc(F)cc(OCC(F)(F)F)c2)cc1)Nc1ccncc1` [2-cyano-1-[(4-{[3-fluoro-5-(2,2,2-trifluoroethoxy)benzene]sulfonyl}phenyl)methyl]-3-(pyridin-4-yl)guanidine], the concentration for half-maximal inhibition (IC50) stood at 5.3 nM in experiment [1] and 1.9 nM in experiment [2] (Homo sapiens, A2780, 72 h).
In the same order, the values of `N#CN=C(NCc1ccc(S(=O)(=O)c2cc(F)cc(C(F)(F)F)c2)cc1)Nc1ccncc1` [2-cyano-1-[(4-{[3-fluoro-5-(trifluoromethyl)benzene]sulfonyl}phenyl)methyl]-3-(pyridin-4-yl)guanidine] are 6 nM and 1.5 nM.
With `N#CN=C(NCc1ccc(S(=O)(=O)c2ccc(-n3cccn3)cc2)cc1)Nc1ccncc1` [2-cyano-1-[(4-{[4-(1H-pyrazol-1-yl)benzene]sulfonyl}phenyl)methyl]-3-(pyridin-4-yl)guanidine], the half-inhibitory concentration (IC50) was found to be 3.3 nM in experiment [1] and 3.4 nM in experiment [2] (Homo sapiens, A2780, 72 h).
Consider `N#C/N=C(\NCc1ccc(S(=O)(=O)c2ccc(N3CCOCC3)cc2)cc1)Nc1ccncc1` [2-cyano-1-[(4-{[4-(morpholin-4-yl)benzene]sulfonyl}phenyl)methyl]-3-(pyridin-4-yl)guanidine], for which the IC50 stood at 1.5 nM in experiment [1] and 2.8 nM in experiment [2] (Homo sapiens, A2780, 72 h).
In the same order, the values of `CC(C)c1ccc(S(=O)(=O)c2ccc(CNC(=NC#N)Nc3ccncc3)cc2)cc1` [2-cyano-1-[(4-{[4-(propan-2-yl)benzene]sulfonyl}phenyl)methyl]-3-(pyridin-4-yl)guanidine] are 3.8 nM and 2.8 nM.
Regarding `CC(C)Oc1ccc(S(=O)(=O)c2ccc(CNC(=NC#N)Nc3ccncc3)cc2)cc1` [2-cyano-1-[(4-{[4-(propan-2-yloxy)benzene]sulfonyl}phenyl)methyl]-3-(pyridin-4-yl)guanidine], the IC50 in experiment [1] was found to be 2.6 nM; in experiment [2] (Homo sapiens, A2780, 72 h), 1.5 nM.
On to `Cn1ncc2ccc(S(=O)(=O)c3ccc(CN/C(=N\C#N)Nc4ccncc4)cc3)cc21` [2-cyano-1-{[4-(1-methyl-1H-indazole-6-sulfonyl)phenyl]methyl}-3-(pyridin-4-yl)guanidine], for which the IC50 was determined as 1 nM in experiment [1] and 1.6 nM in experiment [2] (Homo sapiens, A2780, 72 h).
For `Cn1c(S(=O)(=O)c2ccc(CNC(=NC#N)Nc3ccncc3)cc2)cc2ccccc21` [2-cyano-1-{[4-(1-methyl-1H-indole-2-sulfonyl)phenyl]methyl}-3-(pyridin-4-yl)guanidine], the IC50 in experiment [1] was 2.1 nM; in experiment [2] (Homo sapiens, A2780, 72 h), 1.2 nM.
In the same order, the values of `Cn1cc(S(=O)(=O)c2ccc(CNC(=NC#N)Nc3ccncc3)cc2)cn1` [2-cyano-1-{[4-(1-methyl-1H-pyrazole-4-sulfonyl)phenyl]methyl}-3-(pyridin-4-yl)guanidine] are 4.3 nM and 49.3 nM.
In the same order, the values of `CCCn1cc(S(=O)(=O)c2ccc(CNC(=NC#N)Nc3ccncc3)cc2)cn1` [2-cyano-1-{[4-(1-propyl-1H-pyrazole-4-sulfonyl)phenyl]methyl}-3-(pyridin-4-yl)guanidine] are 4.1 nM and 6.4 nM.
In the same order, the values of `COc1ccc(S(=O)(=O)c2ccc(CNC(=NC#N)Nc3ccncc3)cc2)c(OC)n1` [2-cyano-1-{[4-(2,6-dimethoxypyridine-3-sulfonyl)phenyl]methyl}-3-(pyridin-4-yl)guanidine] are 6.8 nM and 3.4 nM.
